According to US20250059185A1 (Hoffmann-La Roche Inc., priority 2021, published 2025):
Structures can show the parent of a compound that is named as a salt.

Each compound was assayed against MAGL (Homo sapiens (Human), UniProt Q99685) (assay: 2-AG assay (MAGL inhibitory activity, hydrolysis of 2-arachidonoylglycerol followed by mass spectrometry)). Conditions: 50 pM MAGL protein, 15 min pre-incubation, 30 min incubation at RT.
Format: biochemical
Procedure, shortened: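 Human MAGL (50 pM final) preincubated 15 min at RT with compound (3-fold dilutions, 12.5 μM to 0.8 pM final) in 50 mM TRIS, 1 mM EDTA, 0.01% Tween-20, 2.5% DMSO. Reaction with […] 2-AG ran 30 min at RT, then was quenched with acetonitrile containing d8-arachidonic acid. Arachidonic acid measured by SPE–triple-quad MS (negative ESI), activity from the arachidonic/d8-arachidonic acid intensity ratio.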

Chain of MAGL (Q99685 whole entry, species assumed): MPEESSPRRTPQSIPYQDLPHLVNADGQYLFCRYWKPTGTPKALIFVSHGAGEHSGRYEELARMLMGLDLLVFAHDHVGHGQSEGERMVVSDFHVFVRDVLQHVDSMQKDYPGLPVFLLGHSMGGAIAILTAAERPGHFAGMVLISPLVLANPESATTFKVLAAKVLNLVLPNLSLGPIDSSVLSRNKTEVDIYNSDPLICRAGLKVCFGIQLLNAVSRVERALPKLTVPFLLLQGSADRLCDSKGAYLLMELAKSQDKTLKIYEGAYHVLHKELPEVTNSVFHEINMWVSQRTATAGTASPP

Structure (SMILES)	IC50
C[C@H]1c2nn(C)c(-c3cc(F)cc(F)c3)c2CCN1C(=O)c1cc(Cl)cc(OCC2CNC(=O)O2)c1Cl (stereo partly drawn) [Example 107, 5-[[2,5-dichloro-3-[(7S)-3-(3,5-difluorophenyl)-2,7-dimethyl-5,7-dihydro-4H-pyrazolo[3,4-c]pyridine-6-carbonyl]phenoxy]methyl]oxazolidin-2-one]	0.61 nM
C[C@H]1c2nn(C)c(-c3cc(F)cc(F)c3)c2CCN1C(=O)c1cccc(OCC2CNC(=O)O2)c1Cl (stereo partly drawn) [Example 110, 5-[[2-chloro-3-[(7S)-3-(3,5-difluorophenyl)-2,7-dimethyl-5,7-dihydro-4H-pyrazolo[3,4-c]pyridine-6-carbonyl]phenoxy]methyl]oxazolidin-2-one]	2.09 nM
C[C@H]1c2nn(C)c(-c3cc(F)cc(F)c3)c2CCN1C(=O)c1ncn(-c2ccnc(O)c2)n1 [Example 112, [(7S)-3-(3,5-difluorophenyl)-2,7-dimethyl-5,7-dihydro-4H-pyrazolo[3,4-c]pyridin-6-yl]-[1-(2-hydroxy-4-pyridyl)-1,2,4-triazol-3-yl]methanone]	1660 nM
COc1cccc(C(=O)N2CCn3c(-c4cccc(Cl)c4)nnc3[C@@H]2C)c1Cl [Example 116, (2-chloro-3-methoxy-phenyl)-[(5S)-9-(3-chlorophenyl)-5-methyl-1,4,7,8-tetrazabicyclo[4.3.0]nona-1(9),6-dien-4-yl]methanone]	2380 nM

Next, values leading:

IC50	Structure (SMILES)
42.4 nM	C[C@H]1c2nn(C)c(-c3cc(F)cc(F)c3)c2CCN1C(=O)c1cc(F)cc(CCc2c[nH]nn2)c1Cl [Example 104, [2-chloro-5-fluoro-3-[2-(JH-triazol-4-yl)ethyl]phenyl]-[(7S)-3-(3,5-difluorophenyl)-2,7-dimethyl-5,7-dihydro-4H-pyrazolo[3,4-c]pyridin-6-yl]methanone]
1.01 nM	C[C@@H]1c2nn(C)c(-c3cc(F)cc(F)c3)c2CCN1C(=O)c1cc(F)cc(CCc2c[nH]nn2)c1Cl [Example 105, [2-chloro-5-fluoro-3-[2-(JH-triazol-4-yl)ethyl]phenyl]-[(7R)-3-(3,5-difluorophenyl)-2,7-dimethyl-5,7-dihydro-4H-pyrazolo[3,4-c]pyridin-6-yl]methanone]
12.4 nM	CC1c2nn(C)c(-c3cc(F)cc(F)c3)c2CCN1C(=O)c1cc(F)cc(CNC2CNC(=O)C2)c1Cl (stereo not drawn) [Example 106, 4-[[2-chloro-3-[3-(3,5-difluorophenyl)-2,7-dimethyl-5,7-dihydro-4H-pyrazolo[3,4-c]pyridine-6-carbonyl]-5-fluoro-phenyl]methylamino]pyrrolidin-2-one;hydrochloride]
51.6 nM	C[C@H]1c2nn(C)c(-c3cc(F)cc(F)c3)c2CCN1C(=O)c1cc(F)cc(N2CC3(CCN3)C2)c1Cl [Example 111, [2-chloro-3-(1,6-diazaspiro[3.3]heptan-6-yl)-5-fluoro-phenyl]-[(7S)-3-(3,5-difluorophenyl)-2,7-dimethyl-5,7-dihydro-4H-pyrazolo[3,4-c]pyridin-6-yl]methanone;2,2,2-trifluoroacetic acid]
4.88 nM	C[C@H]1c2nn(C)c(-c3cc(F)cc(F)c3)c2CCN1C(=O)c1cc(F)cc(OC[C@H]2CNC(=O)N2)c1Cl [Example 115, (4R)-4-[[2-chloro-3-[(7S)-3-(3,5-difluorophenyl)-2,7-dimethyl-5,7-dihydro-4H-pyrazolo[3,4-c]pyridine-6-carbonyl]-5-fluoro-phenoxy]methyl]imidazolidin-2-one]
